The record followed here is article PMC8667043, “First-in-Class Inhibitors of the Ribosomal Oxygenase MINA53” (Journal of Medicinal Chemistry, 2021).

Test [1] has as its target T1, NO66 (Homo sapiens, UniProt Q9H6W3).
T1 construct: histidine tag (TEV-cleavable) (cleaved yes); made in house; host or cells: E. coli BL21(DE3)-R3-pRARE2
T1 sequence (Q9H6W3 183-641): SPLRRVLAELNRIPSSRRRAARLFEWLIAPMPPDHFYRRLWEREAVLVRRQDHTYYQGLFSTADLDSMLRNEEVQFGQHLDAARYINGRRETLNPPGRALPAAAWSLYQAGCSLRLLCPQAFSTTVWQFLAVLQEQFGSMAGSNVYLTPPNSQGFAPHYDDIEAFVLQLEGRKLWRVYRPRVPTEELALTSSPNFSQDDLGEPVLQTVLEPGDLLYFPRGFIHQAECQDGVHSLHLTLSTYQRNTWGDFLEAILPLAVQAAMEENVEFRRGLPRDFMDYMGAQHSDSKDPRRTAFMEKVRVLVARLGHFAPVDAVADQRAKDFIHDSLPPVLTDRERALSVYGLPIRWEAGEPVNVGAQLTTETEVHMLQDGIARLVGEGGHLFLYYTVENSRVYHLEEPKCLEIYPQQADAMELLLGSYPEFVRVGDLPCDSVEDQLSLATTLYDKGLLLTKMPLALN
Briefly: NO66 MS (RapidFire) hydroxylation inhibition assay, Rpl8 peptide. The class given is biochemical.

Test [2] relates to MNK-45 gastric carcinoma. In words: MTT cell viability assay. In kind it is cell-based, human. To be noted: 72, 96, 120 h, 10 to 100 μM, 10′ to a similar extent as 10. The method, then:
(§1) Human commercially available established cancer cell lines HT-29 colon carcinoma (ATCC, HTB-38), U-87MG glioblastoma (ATCC, HTB-14), and MNK-45 gastric cancer (a gift from Dr. M. Broggini, Mario Negri Institute) were cultured in RPMI medium (Euroclone, Milan, IT) supplemented with 10% inactivated fetal bovine serum (HyClone, Thermo Scientific, South Logan, UT), 1% L-glutamine (Euroclone), and 100 μg/mL penicillin/streptomycin (Euroclone). HEK293T and HeLa cells were cultured in Dulbecco’s Modified Eagle Medium (DMEM, Gibco) supplemented with 10% (v/v) fetal bovine serum (FBS, Sigma) and 100 international units/mL (IU/mL) penicillin and 100 μg/mL streptomycin (Gibco). The cells were routinely tested for mycoplasma contamination and STR-authenticated.
(§2) Twenty-four hours following seeding, exponentially growing cells were treated with the different compounds at concentrations ranging from 10 to 100 μM for 72–120 h. Aqueous DMSO (0.5%, v/v) was used as a control (untreated). Cell viability was determined by the 3-(4,5-dimethylthiazol-2-yl)-2,5-diphenyltetrazolium bromide (MTT) colorimetric assay (Sigma-Aldrich). In summary, exponentially growing cancer cells were seeded in sextuplicate in 96-well culture plates (1.5 × 10^3 cells/well). After 24 h, the compounds were added at concentrations ranging from 10 to 100 μM. The effect of compounds on cancer cell proliferation was assessed by measuring the MTT dye absorbance of the cells as reported.[52] For combination treatments, the cells were treated with each of three compounds, either alone or in combination with doxorubicin. In particular, U-87MG cells were treated with doxorubicin alone or in combination with different MINA53 inhibitors for 24 h. The effect of different compounds or combinations (drug concentration ratio 1:20, doxorubicin: compound) on U-87MG cancer cell viability was assessed by measuring the MTT dye absorbance of cells. The interaction between doxorubicin (Doxo) and different compounds was evaluated based on the combination index (CI) using the CI equation through CalcuSyn software (Biosoft, Cambridge, U.K.). Synergism CI < 0.9, additivity 0.9 < CI < 1.1, antagonism CI > 1.1.
In general terms: Tetrazolium assays rely on reduction of a dye to a coloured formazan, in cell work by metabolically active cells.

In test [3] the test system is U-87MG malignant glioma. In words: MTT cell viability assay. The class given is cell-based, human. Particulars: 72, 96, 120 h, 10 to 100 μM, 10′ to a similar extent as 10. As for the experimental part:
as §1, §2

The subject of test [4] is HT-29 colon carcinoma. Briefly: MTT cell viability assay. The class given is cell-based, human. To be noted: 72, 96, 120 h, 10 to 100 μM, 10′ to a similar extent as 10. As for the experimental part: as §1, §2
For test [5], the target named is T2, MINA53 (Homo sapiens, UniProt Q8IUF8).
T2 construct: MINA53 (Met1-Val464 and Ala26-Val464); histidine tag (TEV-cleavable) (cleaved yes); made in house; host or cells: E. coli BL21(DE3)-R3-pRARE2
Briefly: MINA53 MS (RapidFire) hydroxylation inhibition assay, Rpl27a peptide. In kind it is biochemical.

For test [6], the target named is T3, p300 (Homo sapiens, UniProt Q09472).
T3 construct: purchased Reaction Biology Corporation, Malvern, PA, USA
T3 sequence (Q09472 1284-1673): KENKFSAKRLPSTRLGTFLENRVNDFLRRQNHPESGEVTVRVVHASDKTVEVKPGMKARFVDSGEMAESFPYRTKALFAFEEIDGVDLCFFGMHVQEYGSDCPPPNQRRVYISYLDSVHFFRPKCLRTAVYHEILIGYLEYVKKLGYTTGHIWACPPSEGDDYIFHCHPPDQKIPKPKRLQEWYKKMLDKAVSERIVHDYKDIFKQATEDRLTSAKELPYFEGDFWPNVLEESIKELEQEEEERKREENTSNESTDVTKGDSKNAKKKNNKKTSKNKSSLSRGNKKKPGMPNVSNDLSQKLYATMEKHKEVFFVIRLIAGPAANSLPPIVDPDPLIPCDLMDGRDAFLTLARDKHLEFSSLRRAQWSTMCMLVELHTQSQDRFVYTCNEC
Briefly: HotSpot KAT assay. The class given is biochemical. To be noted: read-out: Residual Enzymatic Activity (%) p300. As for the experimental part:
(§3) The ef fects of 1-13 on th e histone lysine acetyltr a nsferas e activity (KAT ) o f p300 and PCAF were
(§4) determined using the HotSpot KAT assay ( Reaction Biology Corporation, Malvern, PA, USA)
(§5) according to the supplier’s procedure. In brief, recombinant form s of catal ytic domains of PCAF
(§6) NaCl, 0.1 mM EDTA, 1 mM DTT, 1 mM PMSF, 1% (v/v) DMSO) fo r 1 h at 30 °C in the presenc e
(§7) or absence of various concentrations of the inhibitors. Histone H3 acetyl ation was assessed by
(§8) liquid scintillation counting using a Tri-Carb 2800TR Liquid Scintillation Analyzer
(§9) (PerkinElmer). Assays at fixed con centration doses were performed in triplicate and analyzed
(§10) using Excel and GraphPad Prism 6.0 software (GraphPad Software Inc., San Diego, CA).

The target in test [7] is T4, PCAF (Homo sapiens, UniProt Q92831).
T4 construct: purchased Reaction Biology Corporation, Malvern, PA, USA
In words: HotSpot KAT assay. Particulars: means ± SD of three experiments, read-out: Residual Enzymatic Activity (%) PCAF. In kind it is biochemical. As for the experimental part:
as §3, §4, §5, §6, §7, §8, §9, §10

Test [8] has as its system U-87MG cells. In words: MTT cell viability, alone or in combination with doxorubicin; combination index. The class given is cell-based, human. Particulars: 24 h. As for the experimental part: as §2
[9] abbreviates: NO66 (Ser183-Asn641), means ± 95% confidence, n = 3, read-out: IC50 value, NO66 (assay validation, Figure S7).
Setting [10] is: Table S12, read-out: NO66 IC50 (Table S12).
The mark [11] stands for this setting: MINA53 (Met1-Val464), means ± 95% confidence, n = 3, read-out: IC50 value, MINA53 (assay validation, Figure S7).

Entries after “also recorded” stand apart in the source; their conditions may differ. Read-outs that look alike come from different tables or passages of the source.

T2 sequence (Q8IUF8 1-464 isoform Q8IUF8-4): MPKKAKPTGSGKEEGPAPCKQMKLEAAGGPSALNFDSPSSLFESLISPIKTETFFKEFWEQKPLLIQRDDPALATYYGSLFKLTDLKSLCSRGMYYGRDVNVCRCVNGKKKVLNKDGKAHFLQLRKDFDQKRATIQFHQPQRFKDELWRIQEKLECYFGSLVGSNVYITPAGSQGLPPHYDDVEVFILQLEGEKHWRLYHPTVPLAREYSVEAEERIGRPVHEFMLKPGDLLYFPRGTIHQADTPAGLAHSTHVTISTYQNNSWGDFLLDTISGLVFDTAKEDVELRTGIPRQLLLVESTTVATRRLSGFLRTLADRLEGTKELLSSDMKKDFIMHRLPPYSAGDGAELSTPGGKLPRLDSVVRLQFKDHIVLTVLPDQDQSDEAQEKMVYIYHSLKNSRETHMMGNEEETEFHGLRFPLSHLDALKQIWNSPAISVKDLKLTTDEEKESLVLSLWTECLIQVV
T4 sequence (Q92831 492-658): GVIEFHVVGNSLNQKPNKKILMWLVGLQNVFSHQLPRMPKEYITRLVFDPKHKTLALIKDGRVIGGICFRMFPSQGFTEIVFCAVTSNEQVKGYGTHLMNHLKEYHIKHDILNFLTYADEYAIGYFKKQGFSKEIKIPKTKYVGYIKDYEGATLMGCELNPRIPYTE

Turning to `O=C(O)c1ccnc(C(=O)O)c1` [2,4-PDCA, pyridine-2,4-dicarboxylate, reference compound], the figures for the half-maximal inhibitory concentration (IC50) in test [1] (setting [9]) and in test [1] (setting [10]) were 0.11 µM and 0.168 µM, respectively.
As to `COC(=O)c1cnc(SCCCc2ccccc2)[nH]c1=O` [10′, Methyl 2-((3-phenylpropyl)thio)-3,4-dihydro-4-oxopyrimidine-5-carboxylate], in test [2], the “effect on cell viability, MNK-45” value is “reduced the cell viability”. Besides, the “effect on cell viability, U-87MG” value in test [3] is listed as “reduced the cell viability”. Further, the “effect on cell viability, HT-29” value in test [4] is “reduced the cell viability”. For the same compound, the IC50 – broadly, the concentration needed to halve the response being measured – is more than 100 µM in test [5] (Table S12, read-out: MINA53 IC50 (Table S12)) and 20.1 µM in test [1] (setting [10]).
On to `CCCCCCCCCCCCCCCc1cccc(O)c1C(=O)O` [Anacardic Acid (AA), reference compound], for which the remaining activity at 100 µM in test [6] turned out to be 0.9 ± 0.01%; in test [7], 4.7 ± 0.3%.
Turning to `O=C(O)CCNc1cc(N2CCc3ccccc3CC2)nc(-c2ccccn2)n1` [GSK-J1, reference compound], the “inhibition of MINA53 at 100 μM” value in test [5] (at 100 μM) was “did not show significant inhibition; also recorded: No inhibition”. In test [1] (at 100 μM), the “inhibition of NO66 at 100 μM” value is “did not show significant inhibition”. Moreover, in test [1] (read-out: inhibition of NO66 at 100 μM), the inhibition – broadly, the relative decrease from the control value, in per cent – at 100 µM amounted to 30%.
For the compound `O=C(O)c1ccc(O)c2ncccc12` [IOX-1, reference compound], the values for the 50% inhibitory concentration (IC50) in test [5] (setting [11]) and in test [1] (setting [9]) were 102 µM and 38.5 µM, respectively.
For `O=C(O)CNC(=O)C(=O)O` [NOG, N-oxalylglycine, reference compound], in that order: 1.8 µM and 3.5 µM.
Regarding `COc1cccc2c1C(=O)c1c(O)c3c(c(O)c1C2=O)C[C@@](O)(C(=O)CO)C[C@@H]3O[C@H]1C[C@H](N)[C@H](O)[C@H](C)O1` [doxorubicin, reference compound], the “cell viability, single compound treatment” value in test [8] was “reduced cell viability in a dose-dependent manner”.
